Experimental data from patent US20250231157A1, “METHOD FOR DETERMINING THE PARTITION OF NAPHTHENIC ACIDS FROM A PRODUCTION WATER MIMICKING SYSTEM AND MIMICKING SYSTEM” (PETRÓLEO BRASILEIRO S.A. – PETROBRAS, priority 2023, published 2025).

Assays:
[1] = Partition equilibrium under the influence of salinity (NaCl), glass reactor, neutralization titration; format: physicochemical
Method: The variation in salinity (and its effect on acidic species) is due to the large variation in salinity found between the portions of bottom-hole water, middle-well water and surface water. Thus, systems with salinity (i.e., NaCl) between 3.5 and 30% (m·v^−1) were tested in a glass reactor, and neutralization titration was performed (in triplicate analysis), as previously described. Furthermore, the experimental results were generated in triplicate, using 99% NaCl (Sigma-Aldrich) with five acidic species.

[2] = Partition equilibrium in reactor pressurized with CO2, in presence and absence of alkalinity (NaHCO3, Na2CO3), back titration
Method: In the initial tests, 100 mL of heptol and 300 mL of water (with or without salinity) were used, with the addition of acidic species in the organic phase, in order to verify migration to the aqueous phase. As a rule, the system was kept under agitation at 500 rpm for 8 min, followed by rest for 10 min and, finally, collection of 50.0 mL aliquots of the aqueous phase for titrimetric analysis.
A 316 stainless steel alloy reactor (Parr®) (capacity for 600 mL and operational up to 20 MPa pressure) was used. For this purpose, a temperature range between 25° C. and 80° C. and pressure between 0.1 MPa and 1.0 MPa were used, and the reactor was pressurized with CO2. Thus, the results were compared (in terms of migration of the acidic species (%, mol) by means of back titrations) and the influence of pressure and temperature on the partition was estimated, as well as possible synergistic effects with the sources of alkalinity added to the aqueous phase.

[3] = Control experiments: availability of the species in alkaline aqueous medium without using the reactor; format: physicochemical; details: acid solubilized directly in aqueous phase, no reactor
Method: Previously, the back titration procedure was internalized and optimized (Example 1), ensuring that the reproducibility of the measurements was adequate (standard deviation values below 10%, for example) and that the recoveries were close to what was expected based on the purity of the reagents (i.e., close to or above 90%). […] Control experiments were performed (measuring the availability of the species in an aqueous medium, without using the reactor) by solubilizing the organic acid directly in the aqueous phase and titrating a 10.0 mL aliquot; the same way, experiments were performed in the reactor based on the standardization of heptol and salinity already discussed (3.5%).

[4] = Partition equilibrium under the influence of salinity (NaCl), glass reactor, neutralization titration; format: physicochemical; details: Salinity 0 (%, m · m^−1) NaCl
[5] = Partition equilibrium in the presence of surfactants (TBA, CTA, TMA); format: physicochemical
Text: The presence of chemical compounds usually added in the chain of unit operations of oil extraction and production, such as demulsifiers and surfactants, can affect the partition equilibrium of species in this water/oil system. In order to understand the extent of this effect, as well as discern the relevance of the chemical structure on this effect, the following items were chosen: • Dissolvan 961 (Clariant), composed of oil hydrocarbons (CAS 918-811-1) and ethanol (CAS 64-17-5); • Dissolvan 974 (Clariant), composed of EO-PO block polymer poly adducts and Bisphenol-A-diglycidyl ether (CAS 68123-18-2) and ethanol (CAS 64-17-5); • Tetrabutylammonium chloride (CAS 1112-67-0), 97% purity; • Cetyltrimethylammonium chloride (CAS 112-02-7), 25% in water; and • Trimethylammonium chloride (CAS 593-81-7), 98% purity.
For this study, the experiments (in triplicate) used between 100.0 and 1000.0 mg·L^−1 of each compound, comparing the results with control tests (absence of the component), all with constant salinity at 3.5% (m·v^−1). Finally, neutralization titration with a standardized NaOH titrant solution was used to determine the effect on the partition equilibrium for four acidic species (the same as in the other examples, except for dicyclohexylacetic acid).
Considering the study with surfactants, the (individual) addition of three species to the control system was evaluated (tetrabutylammonium chloride (TBA), tetramethylammonium chloride (TMA) and cetyltrimethylammonium chloride (CTA)). For this purpose, the surfactants have distinct chemical structures, namely the size of the side chain, and their eventual effect on the partition equilibrium of the acidic species was evaluated.

[6] = Partition equilibrium with addition of calcium and strontium salts to the aqueous phase; format: physicochemical; details: for Effect of strontium ions on migration to the aqueous phase: strontium 400-2600 mg·L^−1
Method: The addition of salts to the reaction system is of fundamental importance when one intends to mimic field conditions. In this sense, in addition to continuing the study of the salinity effect (Example 4), the insertion of salts containing Ca^2+ and Sr^2+ ions, known to be present in seawater, was tested. To this end, the projects were based on the literature (Zheng, J. et al. Offshore produced water management: A review of current practice and challenges in harsh/Arctic environments. Mar. Pol. Bul. 2016, 104, 7-19) and four concentrations of each of the two ions were evaluated (400.0, 1200.0, 2600.0 and 9000.0 mg·L^−1), maintaining salinity at 3.5% (m·v^−1).
In short, the experimental results were generated in triplicate, using 99% NaCl to add salinity to the aqueous fraction and PA calcium chloride and PA strontium chloride to add calcium and strontium, respectively.
The addition of calcium and strontium to the reaction system, in the form of salts, aims at mimicking the real scenario in which both species are present (regardless of the salinity of the medium), especially in the well condition. This study aimed at understanding the effect (on the migration of acids to the organic phase) of this ion in the system also at concentrations higher than 10 mM. Finally, the experiments (in triplicate) with divalent strontium ions followed the same rationale.

[7] = Partition equilibrium in the presence of demulsifiers (Dissolvan 961, Dissolvan 974)
[8] = Salinity 3.5 (%, m · m^−1) NaCl
[9] = Salinity 18.0 (%, m · m^−1) NaCl
[10] = Salinity 30.0 (%, m · m^−1) NaCl
[11] = Calcium 400 mg · L^−1, salinity 3.5%
[12] = Calcium 1200 mg · L^−1, salinity 3.5%
[13] = Calcium 2600 mg · L^−1, salinity 3.5%
[14] = Strontium 400 mg · L^−1, salinity 3.5%
[15] = Strontium 1200 mg · L^−1, salinity 3.5%
[16] = Strontium 2600 mg · L^−1, salinity 3.5%

## O=C(O)CCCCc1ccccc1 [5-Phenylpentanoic Acid, 5-phenylpentanoic acid]
[1]; 30% (m·v^−1) NaCl versus tests without salinity
  Salting out effect (reduction in the number of moles contained in the aqueous phase): ~38%
[1]; [8]
  Migration: 13.2 %, mol
[1]; [9]
  Migration: 15.4 %, mol
[1]; [10]
  Migration: 15.4 %, mol
[2]; 25° C. and 1.0 MPa CO2, no alkalinity
  Migration: did not generate quantifiable results
[2]; Na2CO3 + NaHCO3, 25° C. and 0.1 MPa
  Migration: 100.0 % mol
[2]; Na2CO3 + NaHCO3, 25° C. and 1.0 MPa CO2
  Migration: 100.0 % mol
[2]; Na2CO3 + NaHCO3, 80° C. and 1.0 MPa CO2
  Migration: 100.0 % mol
[2]; NaHCO3, 25° C. and 0.1 MPa
  Migration: 100.0 % mol
[2]; NaHCO3, 25° C. and 1.0 MPa CO2
  Migration: 100.0 % mol
[2]; NaHCO3, 80° C. and 1.0 MPa CO2
  Migration: 100.0 % mol
[2]; NaHCO3 or Na2CO3 + NaHCO3, 0.1 or 1.0 MPa, 25 or 80 °C
  Migration trend in the presence of alkalinity individually and together with pressure/temperature: 100%
[2]; Reference (heptol + 3.5% NaCl), no alkalinity
  Migration: 10.3 % mol
[3]; Na2CO3 + NaHCO3 (3.48×10^−5 mol)
  Availability (reference value): 100.0 % mol
[3]; NaHCO3 (3.45×10^−5 mol)
  Availability (reference value): 100.0 % mol
[4]
  Migration: 24.4 %, mol
[5]; Absence of surfactant, salinity 3.5%
  Migration: 10.4 %, mol
[5]; CTA100 (cetyltrimethylammonium chloride 100 mg · L^−1)
  Migration: 11.5 %, mol
[5]; CTA1000 (1000 mg · L^−1)
  Migration: 52.6 %, mol
[5]; TBA100 (tetrabutylammonium chloride 100 mg · L^−1)
  Migration: 22.0 %, mol
[5]; TBA1000 (1000 mg · L^−1)
  Migration: 21.6 %, mol
[5]; TMA100 (trimethylammonium chloride 100 mg · L^−1)
  Migration: 9.4 %, mol
[5]; TMA1000 (1000 mg · L^−1)
  Migration: 9.1 %, mol
[5]; surfactant CTA, 1000 mg·L^−1
  Increase in migration to the aqueous phase with CTA: ~500%
[5]; surfactant TBA, noticeable from 100 mg·L^−1
  Increase in the tendency to migrate to the aqueous phase with TBA: 100%
[5]; surfactant TMA
  Effect of TMA on partition equilibrium: no observable effect
[6]; Absence of ions, salinity 3.5%
  Migration: 10.4 %, mol
[6]; [11]
  Migration: 5.5 %, mol
[6]; [12]
  Migration: 4.7 %, mol
[6]; [13]
  Migration: 3.4 %, mol
[6]; [14]
  Migration: 4.4 %, mol
[6]; [15]
  Migration: 5.3 %, mol
[6]; [16]
  Migration: 4.8 %, mol
[6]; calcium up to the maximum study concentrations
  Effect of calcium ion on migration to the aqueous phase: no variation in migration
[6]
  Effect of strontium ions on migration to the aqueous phase: decreased migration
[7]; 50 mg·L^−1 of D961
  Increase in migration to the aqueous phase with demulsifier: approximately 100%
[7]; Absence of ions (no demulsifier), salinity 3.5%
  Migration: 10.4 %, mol
[7]; D961 50 mg · L^−1
  Migration: 21.0 %, mol
[7]; D961 100 mg · L^−1
  Migration: 21.0 %, mol
[7]; D961 1000 mg · L^−1
  Migration: 23.0 %, mol
[7]; D974 50 mg · L^−1
  Migration: 18.0 %, mol
[7]; D974 100 mg · L^−1
  Migration: 16.0 %, mol
[7]; D974 1000 mg · L^−1
  Migration: 14.6 %, mol

## O=C(O)C(C1CCCCC1)C1CCCCC1 [Dicyclohexylacetic Acid, dicyclohexylacetic acid]
[1]; 0-30% NaCl
  Migration to aqueous medium, approximate level over the salinity study: around 20%
[1]; 3.5-30% NaCl, 95% reliability
  Effect of the addition of salinity on migration: no significant effect
[1]; [8]
  Migration: 18.1 %, mol
[1]; [9]
  Migration: 19.9 %, mol
[1]; [10]
  Migration: 21.5 %, mol
[4]
  Migration: 22.0 %, mol
[6]; Absence of ions, salinity 3.5%
  Migration: 22.1 %, mol
[6]; [11]
  Migration: 20.7 %, mol
[6]; [12]
  Migration: 19.6 %, mol
[6]; [13]
  Migration: 31.8 %, mol
[6]; [14]
  Migration: 15.8 %, mol
[6]; [15]
  Migration: 20.0 %, mol
[6]; [16]
  Migration: 21.5 %, mol
[6]; before addition of calcium
  Migration: 22 % (m·v^−1)
[6]
  Effect of strontium ions on migration to the aqueous phase: no effect
